Measurements reported in patent US6028068A, “Substituted 6H-1,3,4-thiadiazine-2-amines, the use thereof as anaesthetising, cardiovascular and hypometabolic agents, and a pharmaceutical composition containing them” (The Procter & Gamble Company, priority 1999, dated 2000).
Where a name gives a salt, the structure may show the parent alone.

Columns and labels:
[1] = Rectal temperature in rats; type: in vivo
physchem = type: physicochemical; settings: twin-water 1:9
Description: (§1) Compound 1 was dissolved in a twin-water 1:9 (concentration of saturated solution was 40 mg/ml) and introduced intraperitoneally at the rate of 0.2 ml per 20 g of mouse weight.

[2] = Oxygen consumption in mice (closed testing unit, gas analyzer MN 5130); type: in vivo, mice (BALB line); settings: for Lowering of oxygen consumption: relative to initial value; for Consumption of oxygen (O2): relative to starting content taken as 100, 390 mg/kg (1.0 mM/kg; 1/2 LD16), mice
Description: (§2) In all cases trials were carried out on mice of the BALB line of 3-4 month age. […] In the case of water-soluble compounds aqueous solutions of the test compounds were injected intraperitoneally (i.p.), while water-insoluble compounds were introduced orally (p.o.).
(§3) Rectal temperature changes (absolute magnitudes in ° C.) were measured using a medicinal electrothermometer TREM-1 (Table 1). […] The data on oxygen consumption are given an percents relative to the starting content of oxygen taken as 100 (Table 2).

[3] = Observed behavioural effects in mice after introduction; type: in vivo, mice (BALB line); settings: intraperitoneally
Description: In all cases trials were carried out on mice of the BALB line of 3-4 month age. Non-toxic doses of compounds under test, varying from 60 to 400 mg/kg, were used in all experiments. In the case of water-soluble compounds aqueous solutions of the test compounds were injected intraperitoneally (i.p.), while water-insoluble compounds were introduced orally (p.o.).
as §1

[4] = Lethal dose determination (LD16, LD50, LD84) in mice; settings: mouse, in vivo, ip
[5] = Rectal (body) temperature in mice; type: in vivo, mice (BALB line); settings: for Body temperature (T): Table 2, 390 mg/kg (1.0 mM/kg; 1/2 LD16)
Description: as §2, §3

With `CCOC(=O)C(=NOC)C1=NN=C(N2CCOCC2)SC1` [Compound 1, Ethyl-1-methoxyimino-1-(2-morpholino-6H-1,3,4-thiadiazine-5-yl)acetate, hydrobromide] the “Fall of rectal temperature” value ([1]; 10 minutes after introduction) was 3-4 °C, the “Fall of rectal temperature” value ([1]; after 30 minutes) was “about 5 °C” and the solubility (physchem) was 40 mg/mL. The “Restoration of oxygen consumption” value ([2]; Table 2, mice) was “Full restoration of oxygen consumption was not observed”, the “Lowering of oxygen consumption” value ([2]; at the fourth hour) was 2 fold and the “Lowering of oxygen consumption” value ([2]; during the first hour) was 7-10 fold. The “Lowering of oxygen consumption” value ([2]; for the next 2 hours) was 3-4 fold, the “Consumption of oxygen (O2)” value ([2]; 0 minutes) was 100 percents and the “Consumption of oxygen (O2)” value ([2]; 5 minutes) was 8.1 percents. The “Consumption of oxygen (O2)” value ([2]; 15 minutes) was 0.1 percents, the “Consumption of oxygen (O2)” value ([2]; 30 minutes) was 0.2 percents and the “Consumption of oxygen (O2)” value ([2]; 60 minutes) was 12.0 percents. The “Consumption of oxygen (O2)” value ([2]; 90 minutes) was 27.0 percents, the “Consumption of oxygen (O2)” value ([2]; 120 minutes) was 26.0 percents and the “Consumption of oxygen (O2)” value ([2]; 180 minutes) was 28.0 percents. For the same compound, the “Consumption of oxygen (O2)” value ([2]; 240 minutes) was 59.0 percents, the “Effects of introduction” value [3] was “akiriesia, suppression of reflexes to external disturbance, lateral state of mice” and the LD16 [4] was 788.4 mg/kg. The LD50 [4] was 830 mg/kg, the LD84 [4] was 881.5 mg/kg and the “Time to maximum temperature drop” value [5] was 90 to 120 min. It also gave a Body temperature ([5]; 391.7 mg/kg (1.0 mM/kg) i.p., 0 minutes) of 37.9 °C, a Body temperature ([5]; 391.7 mg/kg (1.0 mM/kg) i.p., 30 minutes) of 29.6 °C and a Body temperature ([5]; 391.7 mg/kg (1.0 mM/kg) i.p., 60 minutes) of 26.5 °C. For the same compound, the Body temperature ([5]; 391.7 mg/kg (1.0 mM/kg) i.p., 90 minutes) was 24.8 °C, the Body temperature ([5]; 391.7 mg/kg (1.0 mM/kg) i.p., 120 minutes) was 24.6 °C and the Body temperature ([5]; 391.7 mg/kg (1.0 mM/kg) i.p., 180 minutes) was 32.6 °C. The Body temperature ([5]; 391.7 mg/kg (1.0 mM/kg) i.p., 240 minutes) was 34.6 °C, the Body temperature ([5]; 391.7 mg/kg (1.0 mM/kg) i.p., 300 minutes) was 35.9 °C and the “Fall of rectal temperature” value ([5]; 10 minutes after introduction) was 3-4 °C. The “Body temperature (T)” value ([5]; 5 minutes) was 33.5 °C, the “Body temperature (T)” value ([5]; 15 minutes) was 31.2 °C and the “Fall of rectal temperature” value ([5]; after 30 minutes) was 7-8 °C. The Temperature difference ([5]; after five hours) was 2 °C, the “Drop of body temperature” value ([5]; introduced intraperitoneally) was “drop of body temperature” and the Maximum temperature drop ([5]; reached in 90-120 minutes) was 12-13 °C.

For `CCOC(=O)C(=NOC)C1=NN=C(N2CCOCC2)SC1` [Compound 2, Ethyl-1-methoxyimino-1-(2-morpholino-6H-1,3,4-thiadiazine-5-yl)acetate, mesylate], the Body temperature ([5]; 410.0 mg/kg (1.0 mM/kg) i.p., 0 minutes) was 38.5 °C, the Body temperature ([5]; 410.0 mg/kg (1.0 mM/kg) i.p., 30 minutes) was 31.9 °C and the Body temperature ([5]; 410.0 mg/kg (1.0 mM/kg) i.p., 60 minutes) was 32.8 °C. The Body temperature ([5]; 410.0 mg/kg (1.0 mM/kg) i.p., 90 minutes) was 35.3 °C, the Body temperature ([5]; 410.0 mg/kg (1.0 mM/kg) i.p., 120 minutes) was 36.4 °C and the Body temperature ([5]; 410.0 mg/kg (1.0 mM/kg) i.p., 180 minutes) was 37.6 °C. The Body temperature ([5]; 410.0 mg/kg (1.0 mM/kg) i.p., 240 minutes) was 38.8 °C.

`CCOC(=O)C(=NOC)C1=NN=C(N2CCSCC2)SC1` [Compound 4, Ethyl-1-methoxyimino-1-(2-thiomorpholino-6H-1,3,4-thiadiazine-5-yl)acetate, mesylate] showed a Body temperature ([5]; 166.0 mg/kg (0.39 mM/kg) i.p., 0 minutes) of 38.1 °C, a Body temperature ([5]; 166.0 mg/kg (0.39 mM/kg) i.p., 30 minutes) of 33.9 °C and a Body temperature ([5]; 166.0 mg/kg (0.39 mM/kg) i.p., 60 minutes) of 34.9 °C. For the same compound, the Body temperature ([5]; 166.0 mg/kg (0.39 mM/kg) i.p., 120 minutes) was 35.7 °C and the Body temperature ([5]; 166.0 mg/kg (0.39 mM/kg) i.p., 180 minutes) was 37.4 °C.
